Data as given in patent EP4635500A1, “THERAPEUTIC AGENT FOR BACTERIAL INFECTION” (Sumitomo Pharma Co., Ltd., priority 2022, dated 2024).
Converted amounts (≈) assume the structure as drawn. Like-named read-outs stand apart in the source and are kept apart here.

Tested on: Enterobacterales
Experiment: MIC, broth microdilution, CDC/FDA Antibiotic Resistance Isolate Bank (Example 7, Tables 8, 11, 12)
Type: cell-based
Conditions: for MIC: read-out: MIC; for MIC50 / MIC90: carbapenemase-producing Enterobacterales; for MIC50: read-out: MIC50; for MIC90: read-out: MIC90

With `NCC[C@H](O)C(=O)N[C@@H]1C[C@H](N)[C@@H](O[C@H]2O[C@H](CN)[C@@H](O)[C@H](O)[C@H]2O)[C@H](O)[C@H]1O[C@H]1O[C@H](CO)[C@@H](O)[C@H](N)[C@H]1O` [Amikacin, amikacin] the MIC (Escherichia coli, KUB No. 5766, AR Bank # 370) was 4 µg/mL (≈ 6.83 µM), the MIC (Escherichia coli, KUB No. 5767, AR Bank # 371) was 0.5 µg/mL (≈ 0.854 µM) and the MIC (Escherichia coli, KUB No. 5768, AR Bank # 372) was 2 µg/mL (≈ 3.42 µM). It also gave an MIC (Escherichia coli, KUB No. 5769, AR Bank # 373) of 1 µg/mL (≈ 1.71 µM), an MIC (Escherichia coli, KUB No. 5770, AR Bank # 374) of 1 µg/mL (≈ 1.71 µM) and an MIC (Escherichia coli, KUB No. 5774, AR Bank # 378) of 1 µg/mL (≈ 1.71 µM). For the same compound, the MIC (Escherichia coli, KUB No. 5779, AR Bank # 433) was 0.5 µg/mL (≈ 0.854 µM), the MIC (Escherichia coli, KUB No. 5780, AR Bank # 434) was 16 µg/mL (≈ 27.3 µM) and the MIC (Escherichia coli, KUB No. 5781, AR Bank # 435) was over 64 µg/mL. It also gave an MIC (Escherichia, KUB No. 57, AR Bank # 436 (row cut off)) of 1 µg/mL (≈ 1.71 µM), an MIC (Klebsiella aerogenes, Enterobacter aerogenes, KUB No. 5559, AR Bank # 62) of 2 µg/mL (≈ 3.42 µM) and an MIC (Klebsiella aerogenes, Enterobacter aerogenes, KUB No. 5571, AR Bank # 74) of 2 µg/mL (≈ 3.42 µM). The MIC (Klebsiella aerogenes, Enterobacter aerogenes, KUB No. 5658, AR Bank # 161) was 2 µg/mL (≈ 3.42 µM), the MIC (Klebsiella aerogenes, Enterobacter aerogenes, KUB No. 5777, AR Bank # 431) was 0.5 µg/mL (≈ 0.854 µM) and the MIC (Klebsiella oxytoca, KUB No. 5568, AR Bank # 71) was 0.5 µg/mL (≈ 0.854 µM). The MIC (Klebsiella oxytoca, KUB No. 5644, AR Bank # 147) was 0.5 µg/mL (≈ 0.854 µM), the MIC (Klebsiella oxytoca, KUB No. 5771, AR Bank # 375) was 4 µg/mL (≈ 6.83 µM) and the MIC (Klebsiella oxytoca, KUB No. 5776, AR Bank # 380) was 1 µg/mL (≈ 1.71 µM). It also gave an MIC (Klebsiella ozaenae, KUB No. 5548, AR Bank# 51) of over 64 µg/mL, an MIC (Klebsiella ozaenae, KUB No. 5593, AR Bank # 96) of 8 µg/mL (≈ 13.7 µM) and an MIC (Klebsiella pnemnonine, KUB No. 5758, AR Bank # 362) of 32 µg/mL (≈ 54.6 µM). The MIC (Klebsiella pneumoniae, KUB No. 55, AR Bank# 47) was 32 µg/mL (≈ 54.6 µM), the MIC (Klebsiella pneumoniae, KUB No. 5531, AR Bank# 34) was 1 µg/mL (≈ 1.71 µM) and the MIC (Klebsiella pneumoniae, KUB No. 5536, AR Bank# 39) was 4 µg/mL (≈ 6.83 µM). It also gave an MIC (Klebsiella pneumoniae, KUB No. 5537, AR Bank# 40) of 32 µg/mL (≈ 54.6 µM), an MIC (Klebsiella pneumoniae, KUB No. 5538, AR Bank# 41) of over 64 µg/mL and an MIC (Klebsiella pneumoniae, KUB No. 5540, AR Bank# 43) of 1 µg/mL (≈ 1.71 µM). For the same compound, the MIC (Klebsiella pneumoniae, KUB No. 5541, AR Bank# 44) was 16 µg/mL (≈ 27.3 µM), the MIC (Klebsiella pneumoniae, KUB No. 5543, AR Bank# 46) was 16 µg/mL (≈ 27.3 µM) and the MIC (Klebsiella pneumoniae, KUB No. 5546, AR Bank# 49) was over 64 µg/mL. For the same compound, the MIC (Klebsiella pneumoniae, KUB No. 5563, AR Bank # 66) was 8 µg/mL (≈ 13.7 µM), the MIC (Klebsiella pneumoniae, KUB No. 5565, AR Bank # 68) was 64 µg/mL (≈ 109 µM) and the MIC (Klebsiella pneumoniae, KUB No. 5572, AR Bank # 75) was over 64 µg/mL. It also gave an MIC (Klebsiella pneumoniae, KUB No. 5573, AR Bank # 76) of 8 µg/mL (≈ 13.7 µM), an MIC (Klebsiella pneumoniae, KUB No. 5576, AR Bank # 79) of over 64 µg/mL and an MIC (Klebsiella pneumoniae, KUB No. 5577, AR Bank # 80) of 4 µg/mL (≈ 6.83 µM). The MIC (Klebsiella pneumoniae, KUB No. 5584, AR Bank # 87) was 1 µg/mL (≈ 1.71 µM), the MIC (Klebsiella pneumoniae, KUB No. 5594, AR Bank # 97) was 64 µg/mL (≈ 109 µM) and the MIC (Klebsiella pneumoniae, KUB No. 5595, AR Bank # 98) was 32 µg/mL (≈ 54.6 µM). It also gave an MIC (Klebsiella pneumoniae, KUB No. 5603, AR Bank # 106) of over 64 µg/mL, an MIC (Klebsiella pneumoniae, KUB No. 5604, AR Bank # 107) of over 64 µg/mL and an MIC (Klebsiella pneumoniae, KUB No. 5606, AR Bank # 109) of 8 µg/mL (≈ 13.7 µM). The MIC (Klebsiella pneumoniae, KUB No. 5609, AR Bank # 112) was 32 µg/mL (≈ 54.6 µM), the MIC (Klebsiella pneumoniae, KUB No. 5610, AR Bank # 113) was 32 µg/mL (≈ 54.6 µM) and the MIC (Klebsiella pneumoniae, KUB No. 5612, AR Bank # 115) was 0.5 µg/mL (≈ 0.854 µM). It also gave an MIC (Klebsiella pneumoniae, KUB No. 5614, AR Bank # 117) of 32 µg/mL (≈ 54.6 µM), an MIC (Klebsiella pneumoniae, KUB No. 5617, AR Bank # 120) of 32 µg/mL (≈ 54.6 µM) and an MIC (Klebsiella pneumoniae, KUB No. 5622, AR Bank # 125) of 32 µg/mL (≈ 54.6 µM). For the same compound, the MIC (Klebsiella pneumoniae, KUB No. 5623, AR Bank # 126) was 4 µg/mL (≈ 6.83 µM), the MIC (Klebsiella pneumoniae, KUB No. 5626, AR Bank # 129) was 32 µg/mL (≈ 54.6 µM) and the MIC (Klebsiella pneumoniae, KUB No. 5632, AR Bank # 135) was 8 µg/mL (≈ 13.7 µM). It also gave an MIC (Klebsiella pneumoniae, KUB No. 5635, AR Bank # 138) of over 64 µg/mL, an MIC (Klebsiella pneumoniae, KUB No. 5636, AR Bank # 139) of over 64 µg/mL and an MIC (Klebsiella pneumoniae, KUB No. 5637, AR Bank # 140) of over 64 µg/mL. It also gave an MIC (Klebsiella pneumoniae, KUB No. 5638, AR Bank # 141) of over 64 µg/mL, an MIC (Klebsiella pneumoniae, KUB No. 5639, AR Bank # 142) of over 64 µg/mL and an MIC (Klebsiella pneumoniae, KUB No. 5640, AR Bank # 143) of over 64 µg/mL. It also gave an MIC (Klebsiella pneumoniae, KUB No. 5642, AR Bank # 145) of 16 µg/mL (≈ 27.3 µM), an MIC (Klebsiella pneumoniae, KUB No. 5643, AR Bank # 146) of 16 µg/mL (≈ 27.3 µM) and an MIC (Klebsiella pneumoniae, KUB No. 5645, AR Bank # 148) of over 64 µg/mL. It also gave an MIC (Klebsiella pneumoniae, KUB No. 5649, AR Bank # 152) of 32 µg/mL (≈ 54.6 µM), an MIC (Klebsiella pneumoniae, KUB No. 5650, AR Bank # 153) of over 64 µg/mL and an MIC (Klebsiella pneumoniae, KUB No. 5655, AR Bank # 158) of 2 µg/mL (≈ 3.42 µM). For the same compound, the MIC (Klebsiella pneumoniae, KUB No. 5657, AR Bank # 160) was 0.5 µg/mL (≈ 0.854 µM), the MIC (Klebsiella pneumoniae, KUB No. 5757, AR Bank # 361) was 32 µg/mL (≈ 54.6 µM) and the MIC (Klebsiella pneumoniae, KUB No. 5759, AR Bank # 363) was 16 µg/mL (≈ 27.3 µM). It also gave an MIC (Klebsiella pneumoniae, KUB No. 5760, AR Bank # 364) of 16 µg/mL (≈ 27.3 µM), an MIC (Klebsiella pneumoniae, KUB No. 5772, AR Bank # 376) of 2 µg/mL (≈ 3.42 µM) and an MIC (Klebsiella pneumoniae, Klebsiella pneumoniae KUB No. 5784, AR Bank #438) of 32 µg/mL (≈ 54.6 µM). The MIC (Klebsiella pneumoniae, Klebsiella pneumoniae KUB No. 5797, AR Bank #453) was 32 µg/mL (≈ 54.6 µM), the MIC (Klebsiella pneumoniae, Klebsiella pneumoniae KUB No. 5809, AR Bank #504) was 2 µg/mL (≈ 3.42 µM) and the MIC (Klebsiella pneumoniae, Klebsiella pneumoniae KUB No. 5810, AR Bank #505) was 8 µg/mL (≈ 13.7 µM). For the same compound, the MIC (Klebsiella pneumoniae, Klebsiella pneumoniae KUB No. 5811, AR Bank #506) was 32 µg/mL (≈ 54.6 µM), the MIC (Klebsiella pneumoniae, Klebsiella pneumoniae KUB No. 5812, AR Bank #507) was over 64 µg/mL and the MIC (Klebsiella pneumoniae, Klebsiella pneumoniae KUB No. 5827, AR Bank #522) was 4 µg/mL (≈ 6.83 µM). For the same compound, the MIC (Klebsiella pneumoniae, Klebsiella pneumoniae KUB No. 5828, AR Bank #523) was 8 µg/mL (≈ 13.7 µM), the MIC (Klebsiella pneumoniae, Klebsiella pneumoniae KUB No. 5829, AR Bank #524) was 16 µg/mL (≈ 27.3 µM) and the MIC (Klebsiella pneumoniae, Klebsiella pneumoniae KUB No. 5830, AR Bank #525) was 32 µg/mL (≈ 54.6 µM). For the same compound, the MIC (Kluyvera ascorbata, KUB No. 5641, AR Bank # 144) was 4 µg/mL (≈ 6.83 µM), the MIC (Morganella morganii, KUB No. 5554, AR Bank# 57) was 4 µg/mL (≈ 6.83 µM) and the MIC (Morganella morganii, KUB No. 5630, AR Bank # 133) was 1 µg/mL (≈ 1.71 µM). For the same compound, the MIC (Proteus mirabilis, KUB No. 5556, AR Bank# 59) was 4 µg/mL (≈ 6.83 µM), the MIC (Proteus mirabilis, KUB No. 5652, AR Bank # 155) was 1 µg/mL (≈ 1.71 µM) and the MIC (Proteus mirabilis, KUB No. 5653, AR Bank # 156) was 4 µg/mL (≈ 6.83 µM). For the same compound, the MIC (Proteus mirabilis, KUB No. 5656, AR Bank # 159) was over 64 µg/mL, the MIC (Proteus mirabilis, KUB No. 5773, AR Bank # 377) was 2 µg/mL (≈ 3.42 µM) and the MIC (Proteus mirabilis, KUB No. 5775, AR Bank # 379) was 8 µg/mL (≈ 13.7 µM). The MIC (Providencia rettgeri, KUB No. 5579, AR Bank # 82) was 1 µg/mL (≈ 1.71 µM), the MIC (Salmonella enterica, Salmonella Senftenberg, KUB No. 5624, AR Bank # 127) was over 64 µg/mL and the MIC (Serratia marcescens, KUB No. 5588, AR Bank # 91) was 1 µg/mL (≈ 1.71 µM). For the same compound, the MIC (Serratia marcescens, KUB No. 5596, AR Bank # 99) was 1 µg/mL (≈ 1.71 µM), the MIC (Serratia marcescens, KUB No. 5618, AR Bank # 121) was 2 µg/mL (≈ 3.42 µM) and the MIC (Serratia marcescens, KUB No. 5619, AR Bank # 122) was 1 µg/mL (≈ 1.71 µM). It also gave an MIC (Serratia marcescens, KUB No. 5620, AR Bank # 123) of 1 µg/mL (≈ 1.71 µM), an MIC (Serratia marcescens, KUB No. 5621, AR Bank # 124) of 2 µg/mL (≈ 3.42 µM) and an MIC (Serratia marcescens, KUB No. 5627, AR Bank # 130) of 2 µg/mL (≈ 3.42 µM). For the same compound, the MIC (Serratia marcescens, KUB No. 5628, AR Bank # 131) was 1 µg/mL (≈ 1.71 µM), the MIC (Serratia marcescens, Serratia marcescens KUB No. 5822, AR Bank #517) was 8 µg/mL (≈ 13.7 µM) and the MIC (Serratia marcescens, Serratia marcescens KUB No. 5825, AR Bank #520) was 64 µg/mL (≈ 109 µM). For the same compound, the MIC (Serratia marcescens, Serratia marcescens KUB No. 5826, AR Bank #521) was 2 µg/mL (≈ 3.42 µM), the MIC50 (Metallo-β-lactamase (N = 47)) was 16 µg/mL (≈ 27.3 µM) and the MIC90 (Metallo-β-lactamase (N = 47)) was over 64 µg/mL. The MIC50 (Serine carbapenemase (N=61)) was 4 µg/mL (≈ 6.83 µM) and the MIC90 (Serine carbapenemase (N=61)) was 64 µg/mL (≈ 109 µM).
